According to PubChem BioAssay AID651799 (The Scripps Research Institute Molecular Screening Center, 2012):
The source made the active and inactive calls. No rule for the calls is given here.

Molecular target: Nuclear receptor coactivator 2 (Homo sapiens) (UniProt Q15596)
Test: NCOA2-driven reporter transcription inhibition – cell-based, luciferase reporter, luminescence, selectivity assay for SRC1 inhibitor project, late-stage follow-up (AID 651799)
Details: cell-based SRC2 luciferase reporter

Chain of Nuclear receptor coactivator 2 (Homo sapiens) (Q15596 whole entry, looked up): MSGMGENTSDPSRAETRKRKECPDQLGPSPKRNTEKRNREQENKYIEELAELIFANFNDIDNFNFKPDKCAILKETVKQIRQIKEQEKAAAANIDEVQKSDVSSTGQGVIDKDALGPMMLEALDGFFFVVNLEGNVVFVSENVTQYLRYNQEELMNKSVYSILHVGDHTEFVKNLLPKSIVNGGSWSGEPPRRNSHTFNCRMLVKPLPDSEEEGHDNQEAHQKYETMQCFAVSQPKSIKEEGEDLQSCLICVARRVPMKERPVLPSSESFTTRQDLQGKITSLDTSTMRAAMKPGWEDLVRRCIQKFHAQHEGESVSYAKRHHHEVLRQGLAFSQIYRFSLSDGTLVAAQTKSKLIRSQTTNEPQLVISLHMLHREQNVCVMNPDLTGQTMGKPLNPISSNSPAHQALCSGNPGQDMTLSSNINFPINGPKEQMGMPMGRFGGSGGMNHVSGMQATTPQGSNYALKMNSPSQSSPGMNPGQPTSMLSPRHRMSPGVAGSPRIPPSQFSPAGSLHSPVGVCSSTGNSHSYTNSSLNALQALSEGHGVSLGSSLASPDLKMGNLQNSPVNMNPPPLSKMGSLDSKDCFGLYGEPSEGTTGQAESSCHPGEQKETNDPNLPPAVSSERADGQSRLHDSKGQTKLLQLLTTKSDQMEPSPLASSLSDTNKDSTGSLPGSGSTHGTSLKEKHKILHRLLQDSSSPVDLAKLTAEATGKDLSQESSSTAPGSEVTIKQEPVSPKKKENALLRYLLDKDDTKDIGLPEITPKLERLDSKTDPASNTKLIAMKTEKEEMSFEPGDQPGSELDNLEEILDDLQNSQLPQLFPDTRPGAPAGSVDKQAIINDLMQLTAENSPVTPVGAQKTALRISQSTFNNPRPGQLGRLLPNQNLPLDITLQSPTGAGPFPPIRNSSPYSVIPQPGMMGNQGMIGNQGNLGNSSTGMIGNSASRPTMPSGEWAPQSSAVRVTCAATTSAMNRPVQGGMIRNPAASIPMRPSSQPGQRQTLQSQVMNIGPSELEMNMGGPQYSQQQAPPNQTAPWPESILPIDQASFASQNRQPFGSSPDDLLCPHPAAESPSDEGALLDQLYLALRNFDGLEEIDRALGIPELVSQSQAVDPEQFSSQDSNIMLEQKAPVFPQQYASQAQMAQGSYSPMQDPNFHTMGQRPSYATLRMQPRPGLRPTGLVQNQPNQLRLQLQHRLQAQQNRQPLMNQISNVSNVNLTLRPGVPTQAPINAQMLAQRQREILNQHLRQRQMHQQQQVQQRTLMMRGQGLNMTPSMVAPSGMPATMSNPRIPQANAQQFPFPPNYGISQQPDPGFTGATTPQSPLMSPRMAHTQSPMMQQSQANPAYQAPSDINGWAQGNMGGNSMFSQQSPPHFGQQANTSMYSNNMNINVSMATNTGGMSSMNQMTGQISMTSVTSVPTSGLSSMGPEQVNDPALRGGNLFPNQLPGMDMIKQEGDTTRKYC

Row | IC50 | SMILES
1 | inactive | COc1ccc(NC(=O)CN(C)C(=O)C2(c3ccccc3)CCCC2)cc1
2 | inactive | COc1ccc(Nc2ncnc3ccc(Br)cc23)c(OC)c1
